Data on seven compounds can be found in PubChem BioAssay (NCI).

Common to all, as to test: NCI tumour cell line growth inhibition, 48 h
Assay [1] deals with DLD-1 colon.
The subject of assay [2] is DMS 273 small cell lung.
The test system of assay [3] is HCT-15 colon.
Assay [4] relates to HL-60(TB) leukemia.
Assay [5] deals with KM20L2 colon.
Assay [6] relates to M19-MEL melanoma.
In assay [7] the test system is MCF7 breast.
The test system of assay [8] is MOLT-4 leukemia.
Assay [9] concerns NCI/ADR-RES ovarian.
For assay [10], the system named is UACC-62 melanoma.
The test system of assay [11] is UO-31 renal.

Values joined by “and” are separate entries in the source; they are usually repeats but may differ in a detail not shown here. Equal entries are not always repeated.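 Briefly, cells in 96-well plates were exposed to five compound concentrations for 48 h, and endpoints were estimated by linear interpolation. GI50: concentration for 50% inhibition of growth. TGI: total growth inhibition.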

As for `CSCSCC(CO)NC(=O)/C=C\c1c(C)[nH]c(=O)[nH]c1=O` (stereo not given), the TGI in assay [1] came out at 160 µM; in [2] it was 267 µM; in assay [3], 214 µM; in [4] it was 46.6 µM; in assay [5], 129 µM; in assay [6] it was 111 µM. In addition, the TGI in assay [7] was 29.2 µM; in assay [8] it was 59.1 µM; in [9], 296 µM; in [10], 197 µM; in [11] it was 126 µM.

Turning to `CCN(CC)CC[n+]1ccc2c(C)c3[nH]c4ccccc4c3c(C)c2c1`, the TGI is 13.5 µM and 14.6 µM in assay [1]; 1.53 µM and 1.74 µM in assay [2]; 80.5 µM and 110 µM in assay [3]; 3.7 µM and 0.464 µM and 0.743 µM in assay [4]; 1.51 µM and 6.24 µM in [5]; 0.762 µM and 2 µM in assay [6]. For the same compound, the TGI in [7] is 7.36 µM and 5.5 µM and 2.47 µM; in assay [8] it was 1.59 µM and 6.02 µM and 3.27 µM; in assay [9], 48.1 µM and 125 µM; in assay [10] it was 1.65 µM and 2.56 µM and 3.75 µM; in assay [11] it was 78.6 µM and 44 µM and 16.8 µM. Moreover, the GI50 in assay [4] is 0.402 µM and < 0.0437 µM; in assay [5], 0.27 µM and 0.782 µM; in assay [7], 0.323 µM; in assay [8], 0.274 µM; in assay [9], 27.2 µM and 43.6 µM and 87.6 µM; in [10] it was 0.491 µM and 0.827 µM and 1.27 µM. In addition, the GI50 in assay [11] is 22.6 µM and 10.5 µM and 4.12 µM.

As for `N/C(=N\N=C/c1c(O)cc(O)cc1O)NO`, the TGI in assay [1] was over 100 µM; in [2] it was over 31.6 µM; in assay [3] it was over 100 µM; in assay [4] it was over 76.9 µM; in [5] it was over 100 µM; in [6] it was over 100 µM. Also, the TGI in assay [7], in assay [8], in assay [9], in [10] and in assay [11] was over 100 µM in each case.

Take `Cc1ccc(N2Cc3c(ccc4ccccc34)OP2(=S)N2CCCC2)cc1` (stereo not given): the TGI in assay [1], in assay [2], in [3], in assay [4], in assay [5] and in assay [6] was over 100 µM each time. Also, the TGI in assay [7], in assay [8], in assay [9], in [10] and in assay [11] was over 100 µM each time.

For `O=Cn1c2ccccc2c2ccccc21`, the TGI in assay [1], in assay [2], in assay [3], in [4], in [5] and in assay [6] was over 100 µM in each case. For the same compound, the TGI in [8], in assay [10] and in assay [11] was over 100 µM throughout.

As for `CCCCn1c(-c2ccccc2)cs/c1=N\NC(=O)Cn1c(C)nc2ccccc21`, the TGI is over 100 µM in assay [1]; over 100 µM in [2]; over 100 µM in assay [3]; 56.2 µM in assay [4]; over 100 µM in assay [5]; over 100 µM in [6]. Also, the TGI in assay [8] is 57.4 µM; in [10], over 100 µM; in assay [11] it was over 100 µM.

As for `CC(C)=CC(=O)OC1C2C(C)=CC(=O)C(O)C2(C)C2C3(O)OCC24C(CC(=O)OC14)C(C)C3O` (stereo not given), the TGI was 0.221 µM and 0.554 µM in assay [1]; 0.0122 µM and 0.0241 µM in assay [2]; 0.212 µM and 0.853 µM and 0.687 µM in [3]; 0.197 µM and 0.153 µM in [5]; 0.0252 µM and 0.027 µM in [6]; 0.00664 µM in assay [7]. For the same compound, the TGI in assay [10] is 0.0313 µM and 0.0404 µM; in assay [11], 0.545 µM and 4.78 µM and 1.03 µM. The GI50 was 0.02 µM in assay [2]; 0.0579 µM and 0.0541 µM in [3]; 0.02 µM in assay [4]; 0.00159 µM in assay [7]; 0.02 µM in assay [8]; 6.65 µM and 2.24 µM in assay [9]. Further, the GI50 is 0.0204 µM in assay [10] and 0.829 µM in [11].
